Here are results for ten cell lines from the supplement of paper PMC10307832.

Test in all cases: relative viability (nuclei count vs DMSO), 5 days (fraction); higher = more cells survive
Compound in the assay “Bosutinib + Palbociclib”: COc1cc(Nc2c(C#N)cnc3cc(OCCCN4CCN(C)CC4)c(OC)cc23)c(Cl)cc1Cl [Bosutinib] + CC(=O)c1c(C)c2cnc(Nc3ccc(N4CCNCC4)cn3)nc2n(C2CCCC2)c1=O [Palbociclib] (partner 0.5 µM)
The gist of the method:
(§1)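 Lung cancer cell lines in 1536-well plates were dosed by pin tool the day after seeding, either with one drug alone or with a fixed anchor-drug dose plus five library-drug doses (not always all listed) in √10 steps. After 5 days, cells were fixed and their nuclei stained in one step (final 0.05% Triton X-100, 1% formaldehyde, 1 ug/ml Hoechst), then counted on 4× images. Relative viability is the nuclei count in treated wells divided by that in vehicle wells. Values are medians of duplicate plates.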

Compound in the assay “Bosutinib + Luminespib”: COc1cc(Nc2c(C#N)cnc3cc(OCCCN4CCN(C)CC4)c(OC)cc23)c(Cl)cc1Cl [Bosutinib] + CCNC(=O)c1noc(-c2cc(C(C)C)c(O)cc2O)c1-c1ccc(CN2CCOCC2)cc1 [Luminespib] (partner 0.01 µM)
The gist of the method:
as §1

Compound in the assay “Bosutinib + Linsitinib”: COc1cc(Nc2c(C#N)cnc3cc(OCCCN4CCN(C)CC4)c(OC)cc23)c(Cl)cc1Cl [Bosutinib] + C[C@]1(O)C[C@@H](c2nc(-c3ccc4ccc(-c5ccccc5)nc4c3)c3c(N)nccn32)C1 [Linsitinib] (partner 1 µM)
In short, it runs like this: as §1

Compound in the assay “Bosutinib + AZD7762”: COc1cc(Nc2c(C#N)cnc3cc(OCCCN4CCN(C)CC4)c(OC)cc23)c(Cl)cc1Cl [Bosutinib] + NC(=O)Nc1cc(-c2cccc(F)c2)sc1C(=O)N[C@H]1CCCNC1 [AZD7762] (partner 0.2 µM)
In short, it runs like this: as §1

Compound in the assay “Bosutinib + Olaparib”: COc1cc(Nc2c(C#N)cnc3cc(OCCCN4CCN(C)CC4)c(OC)cc23)c(Cl)cc1Cl [Bosutinib] + O=C(c1cc(Cc2n[nH]c(=O)c3ccccc23)ccc1F)N1CCN(C(=O)C2CC2)CC1 [Olaparib] (partner 8 µM)
In short, it runs like this: as §1

For the cell line HCC-827, the relative viability in the assay with Bosutinib + Palbociclib (first compound 0.01 µM) stood at 0.439; with Bosutinib + Palbociclib (first compound 0.03162 µM) it was 0.473; with Bosutinib + Palbociclib (first compound 0.1 µM), 0.469; in the assay with Bosutinib + Palbociclib (first compound 1 µM), 0.196; with Bosutinib + Luminespib (first compound 0.01 µM), 0.709; with Bosutinib + Luminespib (first compound 0.03162 µM) it was 0.589. Moreover, the relative viability amounted to 0.525 with Bosutinib + Luminespib (first compound 0.1 µM); 0.174 in the assay with Bosutinib + Luminespib (first compound 1 µM); 0.987 with Bosutinib + Linsitinib (first compound 0.01 µM); 0.967 with Bosutinib + Linsitinib (first compound 0.03162 µM); 0.914 with Bosutinib + Linsitinib (first compound 0.1 µM); 0.843 with Bosutinib + Linsitinib (first compound 1 µM). Further, the relative viability with Bosutinib + AZD7762 (first compound 0.01 µM) was found to be 0.219; in the assay with Bosutinib + AZD7762 (first compound 0.03162 µM), 0.21; with Bosutinib + AZD7762 (first compound 0.1 µM) it was 0.189; with Bosutinib + AZD7762 (first compound 1 µM), 0.168; with Bosutinib + Olaparib (first compound 0.01 µM) it was 0.609; with Bosutinib + Olaparib (first compound 0.03162 µM), 0.817. Besides, the relative viability came out at 0.626 with Bosutinib + Olaparib (first compound 0.1 µM) and 0.217 in the assay with Bosutinib + Olaparib (first compound 1 µM).

HOP-62: the relative viability in the assay with Bosutinib + Palbociclib (first compound 0.01 µM) turned out to be 0.378; in the assay with Bosutinib + Palbociclib (first compound 0.03162 µM) it was 0.487; in the assay with Bosutinib + Palbociclib (first compound 0.1 µM) it was 0.473; with Bosutinib + Palbociclib (first compound 1 µM) it was 0.447; in the assay with Bosutinib + Luminespib (first compound 0.01 µM) it was 0.993; with Bosutinib + Luminespib (first compound 0.03162 µM), 0.895. The relative viability amounted to 0.937 with Bosutinib + Luminespib (first compound 0.1 µM); 0.904 with Bosutinib + Luminespib (first compound 1 µM); 0.881 with Bosutinib + Linsitinib (first compound 0.01 µM); 0.949 with Bosutinib + Linsitinib (first compound 0.03162 µM); 1.01 with Bosutinib + Linsitinib (first compound 0.1 µM); 1.11 with Bosutinib + Linsitinib (first compound 1 µM). For the same cell line, the relative viability worked out at 0.497 in the assay with Bosutinib + AZD7762 (first compound 0.01 µM); 0.619 in the assay with Bosutinib + AZD7762 (first compound 0.03162 µM); 0.721 in the assay with Bosutinib + AZD7762 (first compound 0.1 µM); 0.4 with Bosutinib + AZD7762 (first compound 1 µM); 0.395 in the assay with Bosutinib + Olaparib (first compound 0.03162 µM); 0.451 in the assay with Bosutinib + Olaparib (first compound 0.1 µM). Also, the relative viability in the assay with Bosutinib + Olaparib (first compound 1 µM) was determined as 0.435.

Take IA-LM: the relative viability with Bosutinib + Linsitinib (first compound 0.01 µM) was 0.637; with Bosutinib + Linsitinib (first compound 0.03162 µM), 0.744; with Bosutinib + Linsitinib (first compound 0.1 µM), 0.754; with Bosutinib + Linsitinib (first compound 1 µM) it was 0.745; with Bosutinib + Olaparib (first compound 0.01 µM) it was 0.964; with Bosutinib + Olaparib (first compound 0.03162 µM) it was 0.927. Also, the relative viability worked out at 0.858 with Bosutinib + Olaparib (first compound 0.1 µM) and 0.77 with Bosutinib + Olaparib (first compound 1 µM).

As for LC-2-ad, the relative viability with Bosutinib + Palbociclib (first compound 0.01 µM) was determined as 0.498; in the assay with Bosutinib + Palbociclib (first compound 0.03162 µM), 0.507; with Bosutinib + Palbociclib (first compound 0.1 µM), 0.522; with Bosutinib + Palbociclib (first compound 1 µM), 0.478; in the assay with Bosutinib + Luminespib (first compound 0.01 µM) it was 1.05; with Bosutinib + Luminespib (first compound 0.03162 µM), 0.924. For the same cell line, the relative viability was determined as 0.978 in the assay with Bosutinib + Luminespib (first compound 0.1 µM); 1.01 with Bosutinib + Luminespib (first compound 1 µM); 0.902 with Bosutinib + Linsitinib (first compound 0.01 µM); 0.879 in the assay with Bosutinib + Linsitinib (first compound 0.03162 µM); 0.871 with Bosutinib + Linsitinib (first compound 0.1 µM); 0.78 with Bosutinib + Linsitinib (first compound 1 µM). Moreover, the relative viability with Bosutinib + AZD7762 (first compound 0.01 µM) was 0.88; with Bosutinib + AZD7762 (first compound 0.03162 µM) it was 0.818; with Bosutinib + AZD7762 (first compound 0.1 µM), 0.846; with Bosutinib + AZD7762 (first compound 1 µM) it was 0.755; with Bosutinib + Olaparib (first compound 0.01 µM) it was 0.719; with Bosutinib + Olaparib (first compound 0.03162 µM) it was 0.672. Moreover, the results for the relative viability with Bosutinib + Olaparib (first compound 0.1 µM) and in the assay with Bosutinib + Olaparib (first compound 1 µM) were 0.678 and 0.732, respectively.

As for NCI-H520, the relative viability turned out to be 0.206 with Bosutinib + Palbociclib (first compound 0.01 µM); 0.227 in the assay with Bosutinib + Palbociclib (first compound 0.03162 µM); 0.208 with Bosutinib + Palbociclib (first compound 0.1 µM); 0.169 in the assay with Bosutinib + Palbociclib (first compound 1 µM); 0.199 with Bosutinib + Luminespib (first compound 0.01 µM); 0.236 in the assay with Bosutinib + Luminespib (first compound 0.03162 µM). Further, the relative viability with Bosutinib + Luminespib (first compound 0.1 µM) is 0.223; in the assay with Bosutinib + Luminespib (first compound 1 µM), 0.214; with Bosutinib + Linsitinib (first compound 0.01 µM), 1.05; with Bosutinib + Linsitinib (first compound 0.03162 µM), 1.05; with Bosutinib + Linsitinib (first compound 0.1 µM) it was 1.03; with Bosutinib + Linsitinib (first compound 1 µM), 0.767. Besides, the relative viability in the assay with Bosutinib + Olaparib (first compound 0.01 µM) turned out to be 0.358; with Bosutinib + Olaparib (first compound 0.03162 µM) it was 0.379; with Bosutinib + Olaparib (first compound 0.1 µM), 0.352; with Bosutinib + Olaparib (first compound 1 µM) it was 0.298.

Take NCI-H596: the relative viability with Bosutinib + Luminespib (first compound 0.01 µM) turned out to be 0.935; with Bosutinib + Luminespib (first compound 0.03162 µM), 0.938; with Bosutinib + Luminespib (first compound 0.1 µM) it was 0.959; with Bosutinib + Luminespib (first compound 1 µM), 1.1; with Bosutinib + Linsitinib (first compound 0.01 µM), 0.941; with Bosutinib + Linsitinib (first compound 0.03162 µM), 0.978. Moreover, the relative viability came out at 1.16 in the assay with Bosutinib + Linsitinib (first compound 0.1 µM); 0.831 in the assay with Bosutinib + Linsitinib (first compound 1 µM); 1.08 with Bosutinib + AZD7762 (first compound 0.01 µM); 1.07 with Bosutinib + AZD7762 (first compound 0.03162 µM); 1.08 with Bosutinib + AZD7762 (first compound 0.1 µM); 0.918 with Bosutinib + AZD7762 (first compound 1 µM). The relative viability with Bosutinib + Olaparib (first compound 0.01 µM) amounted to 0.73; with Bosutinib + Olaparib (first compound 0.03162 µM), 0.715; with Bosutinib + Olaparib (first compound 0.1 µM) it was 0.705; in the assay with Bosutinib + Olaparib (first compound 1 µM), 0.564.

Take NCI-H661: the relative viability came to 0.392 with Bosutinib + Palbociclib (first compound 0.01 µM); 0.398 with Bosutinib + Palbociclib (first compound 0.03162 µM); 0.434 with Bosutinib + Palbociclib (first compound 0.1 µM); 0.363 with Bosutinib + Palbociclib (first compound 1 µM); 0.947 in the assay with Bosutinib + Luminespib (first compound 0.01 µM); 0.964 with Bosutinib + Luminespib (first compound 0.03162 µM). In addition, the relative viability stood at 0.963 in the assay with Bosutinib + Luminespib (first compound 0.1 µM); 0.758 with Bosutinib + Luminespib (first compound 1 µM); 0.678 with Bosutinib + Linsitinib (first compound 0.01 µM); 0.571 with Bosutinib + Linsitinib (first compound 0.03162 µM); 0.57 with Bosutinib + Linsitinib (first compound 0.1 µM); 0.323 with Bosutinib + Linsitinib (first compound 1 µM). The relative viability in the assay with Bosutinib + Olaparib (first compound 0.01 µM) turned out to be 0.696; with Bosutinib + Olaparib (first compound 0.03162 µM), 0.736; with Bosutinib + Olaparib (first compound 0.1 µM) it was 0.743; in the assay with Bosutinib + Olaparib (first compound 1 µM) it was 0.649.

Take NCI-H1563: the relative viability amounted to 0.516 in the assay with Bosutinib + Luminespib (first compound 0.01 µM); 0.535 with Bosutinib + Luminespib (first compound 0.03162 µM); 0.54 in the assay with Bosutinib + Luminespib (first compound 0.1 µM); 0.521 with Bosutinib + Luminespib (first compound 1 µM); 1.24 in the assay with Bosutinib + Linsitinib (first compound 0.01 µM); 1.2 with Bosutinib + Linsitinib (first compound 0.03162 µM). Further, the relative viability was 1.06 in the assay with Bosutinib + Linsitinib (first compound 0.1 µM) and 0.792 in the assay with Bosutinib + Linsitinib (first compound 1 µM).

With NCI-H1650, the relative viability turned out to be 0.343 with Bosutinib + Palbociclib (first compound 0.01 µM); 0.315 with Bosutinib + Palbociclib (first compound 0.03162 µM); 0.304 with Bosutinib + Palbociclib (first compound 0.1 µM); 0.188 with Bosutinib + Palbociclib (first compound 1 µM); 0.193 in the assay with Bosutinib + Luminespib (first compound 0.01 µM); 0.209 with Bosutinib + Luminespib (first compound 0.03162 µM). The relative viability with Bosutinib + Luminespib (first compound 0.1 µM) is 0.174; with Bosutinib + Luminespib (first compound 1 µM), 0.154; with Bosutinib + Olaparib (first compound 0.01 µM) it was 0.705; in the assay with Bosutinib + Olaparib (first compound 0.03162 µM) it was 0.717; in the assay with Bosutinib + Olaparib (first compound 0.1 µM) it was 0.632; with Bosutinib + Olaparib (first compound 1 µM), 0.565.

As to NCI-H1703, the relative viability in the assay with Bosutinib + Linsitinib (first compound 0.01 µM) stood at 0.804; with Bosutinib + Linsitinib (first compound 0.03162 µM), 0.932; with Bosutinib + Linsitinib (first compound 0.1 µM), 0.587; with Bosutinib + Linsitinib (first compound 1 µM), 0.388; with Bosutinib + AZD7762 (first compound 0.01 µM), 0.12; with Bosutinib + AZD7762 (first compound 0.03162 µM), 0.132. Further, the relative viability with Bosutinib + AZD7762 (first compound 0.1 µM) came to 0.124; in the assay with Bosutinib + AZD7762 (first compound 1 µM), 0.133; with Bosutinib + Olaparib (first compound 0.01 µM) it was 0.371; with Bosutinib + Olaparib (first compound 0.03162 µM), 0.471; in the assay with Bosutinib + Olaparib (first compound 0.1 µM), 0.311; with Bosutinib + Olaparib (first compound 1 µM), 0.26.
